Laboratory results taken from article PMC13080237, “Functional divergence of protein kinase A regulatory subunit Iβ variants: the importance of N3A motifs in PKA regulation” (The Febs Journal, 2025).

Tests used:
RIβ (RIβ A268; His-RIβ) [1] = biological target: T1, RIβ (RIβ A268; His-RIβ) (Homo sapiens, UniProt P31321); test: fluorescence polarization, direct titration; type: binding; settings: labelled compound; 0.5 nM 8-Fluo-cAMP, RIβ dilution series; 20 mM MOPS pH 7.4, 150 mM NaCl, room temperature; read-out: affinity
T1 construct: gene PRKAR1B; full-length, N-terminal His-tag (pQTEV vector), E. coli TP2000 cells, Ni-NTA; dimer; 380 residues as printed

RIβ (RIβ A268; His-RIβ) [2] = biological target: T2, RIβ (RIβ A268; His-RIβ) (Homo sapiens, UniProt P31321, A268R); test: fluorescence polarization, direct titration; type: binding; settings: labelled compound; 0.5 nM 8-Fluo-cAMP, RIβ R268 dilution series; 20 mM MOPS pH 7.4, 150 mM NaCl, room temperature; residue 268 in bovine RIα numbering (270 in human RIβ); read-out: affinity
T2 construct: gene PRKAR1B; full-length, N-terminal His-tag (pQTEV vector), E. coli TP2000 cells, Ni-NTA; dimer; 380 residues as printed

[3] = biological target: GFP2 fusion of human PKA Cα (BRET acceptor) (human) (UniProt P17612); test: FRET or BRET; BRET2 in living HEK293 cells; RLuc8 fused to the R subunit, GFP2 fused to the C subunit; 37 °C, HBSS w/o Mg2+/Ca2+ pH 7.4, coelenterazine 400a; time courses and end points (20 min); cells treated with buffer, 100 nM isoproterenol, or 50 uM forskolin + 100 uM IBMX

T2 sequence (P31321 2-381 A268R): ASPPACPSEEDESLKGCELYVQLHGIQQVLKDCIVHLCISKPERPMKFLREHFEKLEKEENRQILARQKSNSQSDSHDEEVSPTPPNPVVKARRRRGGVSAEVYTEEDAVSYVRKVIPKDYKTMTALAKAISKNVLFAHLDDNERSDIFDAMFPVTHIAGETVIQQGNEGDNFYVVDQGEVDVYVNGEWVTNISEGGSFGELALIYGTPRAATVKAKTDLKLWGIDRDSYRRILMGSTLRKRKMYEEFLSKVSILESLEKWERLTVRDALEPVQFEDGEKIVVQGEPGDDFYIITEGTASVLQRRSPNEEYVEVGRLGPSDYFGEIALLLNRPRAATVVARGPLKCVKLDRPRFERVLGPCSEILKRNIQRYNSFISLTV
T1 sequence (P31321 2-381): as the sequence (P31321 2-381 A268R) above, with R267A counted along it

Row | Substance | Kd (RIβ (RIβ A268; His-RIβ) [1]) [nM] | Kd (RIβ (RIβ A268; His-RIβ) [2]) [nM] | maximal cAMP-induced dissociation of the holoenzyme (%) [3] [%]
1 | 8‐(2‐[fluoresceinyl]aminoethylthio)‐cAMP [8-Fluo-cAMP] | 4 | 4 | –
2 | RLuc8 fusion of human RIβ R268 (BRET donor) (natural protein) | – | – | 30
